Data taken from patent publication US8097634B2, “Azacyclic derivatives” (Hoffmann-La Roche Inc., priority 2010, dated 2012).

molecular target: T1, human HSL (Homo sapiens, UniProt Q05469); experiment: Human Hormone-Sensitive Lipase (HSL) enzyme inhibition assay (colorimetric, DMPT substrate); assay type: biochemical; conditions: human full length HSL-His6, 2,3-dimercapto-1-propanol tributyrate substrate, 37° C. 20 minutes; read-out: HSL hum IC50
T1 construct: fused on or other part: C-terminal His6 tag
T1 sequence (Q05469 1-1076): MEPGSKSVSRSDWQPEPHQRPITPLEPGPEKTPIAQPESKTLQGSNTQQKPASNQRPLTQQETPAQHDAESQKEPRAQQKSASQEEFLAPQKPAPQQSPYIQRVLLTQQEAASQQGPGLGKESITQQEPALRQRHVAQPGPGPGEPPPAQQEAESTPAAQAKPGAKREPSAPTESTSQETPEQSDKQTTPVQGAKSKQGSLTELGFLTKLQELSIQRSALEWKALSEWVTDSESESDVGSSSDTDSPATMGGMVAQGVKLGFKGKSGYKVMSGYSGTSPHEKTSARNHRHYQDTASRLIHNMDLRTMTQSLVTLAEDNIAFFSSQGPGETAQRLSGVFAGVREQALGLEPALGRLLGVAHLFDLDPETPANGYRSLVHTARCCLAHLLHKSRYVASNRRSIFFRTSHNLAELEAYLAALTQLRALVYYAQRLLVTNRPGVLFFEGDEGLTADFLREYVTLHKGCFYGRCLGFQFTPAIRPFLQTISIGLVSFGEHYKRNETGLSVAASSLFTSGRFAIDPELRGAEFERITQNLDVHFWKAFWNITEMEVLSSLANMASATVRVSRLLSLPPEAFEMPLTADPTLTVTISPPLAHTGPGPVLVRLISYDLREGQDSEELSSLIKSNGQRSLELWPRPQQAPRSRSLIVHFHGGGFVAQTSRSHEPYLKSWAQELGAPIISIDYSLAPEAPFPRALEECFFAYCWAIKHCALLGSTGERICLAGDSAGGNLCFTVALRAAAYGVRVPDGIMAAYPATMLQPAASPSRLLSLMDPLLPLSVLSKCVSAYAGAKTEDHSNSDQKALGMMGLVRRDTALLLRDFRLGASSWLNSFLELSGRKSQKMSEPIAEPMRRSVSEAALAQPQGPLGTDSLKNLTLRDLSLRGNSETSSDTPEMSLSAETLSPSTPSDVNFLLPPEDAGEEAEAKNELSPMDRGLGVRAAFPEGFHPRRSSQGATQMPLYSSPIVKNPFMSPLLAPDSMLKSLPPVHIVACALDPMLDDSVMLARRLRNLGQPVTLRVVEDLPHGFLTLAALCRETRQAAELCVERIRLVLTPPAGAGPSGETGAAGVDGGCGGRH
Description: Production of Human full length Hormone Sensitive Lipase-His^6:
1) Cloning: cDNA was prepared from commercial human brain polyA+ RNA and used as a template in overlapping PCR to generate a full length human HSL ORF with a 3′-His6 tag. This full length insert was cloned into the pFast-BAC vector and the DNA-sequence of several single clones was verified. DNA from a correct full length clone with the 3′His6 tag was used to transform the E. coli strain DH10BAC. Resulting bacmid DNA was used to generate a titered baculovirus stock for protein generation. The sequence of the encoded HSL conforms to Swissprot entry Q05469, with the additional C-terminal His6-tag.
2) Protein purification: Culture: 5.5 L, High 5 cells expressing human full length HSL-His^6, 48 hr., containing 25 μM E-64. Cell count: […], 90% viable.
Cells were thawed. On ice, cells were suspended in Base Buffer containing 10% glycerol, 25 mM Tris-Cl, 300 mM NaCl, 10 mM imidazole, 10 mM 2-mercaptoethanol, 2 μg pepstatin/ml, 2 μg leupeptin/ml, 2 μg antipain/ml, pH 8.0 at 4° C. in a final volume of 475 ml with 3.75×10^7 cells/ml. […] was done at 3×30 sec., Lubrol PX was added to 0.2% final concentration followed by stirring for 15 min. at 4° C. and centrifugation at 25 k×g, 60 min., 4° C. Soluble proteins were mixed with 60 ml of pre-washed and equilibrated Ni-NTA Agarose (Qiagen 30210) followed by tumbling end-over-end, 45 min., 4° C., centrifugation 1000 rpm 5 min and letting resin settle 5 min. Supernatant was removed, the resin washed in the centrifuge vessel using 5 volumes of Base Buffer containing 0.2% Lubrol PX. Centrifugation was done again, then the supernatant discarded. The resin was poured onto a 0.8 μm membrane in a disposable filter unit (Nalge 450-0080), and washed with 5 volumes of Base Buffer containing 0.2% Lubrol PX. It was then washed with 30 volumes of Base Buffer containing 60 mM imidazole pH 7.5 at 4° C. The protein was eluated with 5 volumes of 25 mM Tris-Cl, 300 mM NaCl, 200 mM imidazole, 10 mM 2-mercaptoethanol, pH 7.5 at 4° C. by tumbling resin with buffer end-over-end, 30 min., 4° C. The resin was captured on a 0.2 μm membrane disposable filter unit (Millipore SCGP U02 RE) and the eluate collected in the reservoir. The eluate was concentrated using a 30 k MWCO centrifugal filter device (Sartorius Vivascience Vivacell 100, VC1022), to 20 ml. It was then dialyzed overnight at 4° C., two times against 2 L of 10% glycerol, 25 mM Tris-Cl, 300 mM NaCl, 0.2 mM EDTA, 0.2 mM DTT, pH 7.5 at 4° C. The protein was filtered using a 0.22 μm disposable filter unit (Millipore SCGP00525). The protein concentration was calculated from absorbance at 280 nm, using 280=0.67 cm-1 mg-1. Yield was 235 mg, total. The protein was stored at −80° C.
Human Hormone-Sensitive Lipase (HSL) enzyme inhibition assay:
HSL enzyme activity was measured by a colorimetric assay using 2,3-dimercapto-1-propanol tributyrate (Aldrich, St. Louis, Mo.) as a substrate. Typically, 1.5 mM 2,3-dimercapto-1-propanol tributyrate (DMPT) in 100 mM MOPS, pH 7.2, 0.2 mg/ml fatty acid-free BSA was prepared by sonication at 4° C. to homogenous suspension. Test compounds (2 mM stock in DMSO) were diluted 3 fold in series in DMSO. Compound solutions were diluted 24 fold in 1.5 mM DMPT containing solution and 18 ul per well was added to 384-well microplates (Corning Costar). Twelve microliters per well of human HSL (15 ug/ml) was added and the reaction mixture was incubated at 37° C. for 20 minutes. Six microliters of 12 mM dithio-bis-(2-nitrobenzoic acid) (DTNB) in DMSO plus 1.2% SDS and 0.6% Triton X-100 were added and the mixture was incubated at room temperature for 15 minutes. Product production was monitored by reading absorbance at 405 nm on an Envision Reader (PerkinElmer Life and Analytical Sciences, Shelton, Conn.).

O=C1CC2(CCN(c3ccc(OC(F)(F)F)cc3)C2=O)CCN1S(=O)(=O)c1ccccc1Cl (stereo not drawn) [Example 3, 8-(2-Chloro-benzenesulfonyl)-2-(4-trifluoromethoxy-phenyl)-2,8-diaza-spiro[4.5]decane-1,7-dione] and O=C1CC2(CCN(c3ccc(CC(F)(F)F)cc3)C2=O)CCN1S(=O)(=O)c1ccccc1Cl (stereo not drawn) [Example 10, 8-(2-chlorophenylsulfonyl)-2-(4-(2,2,2-trifluoroethyl)phenyl)-2,8-diazaspiro[4.5]decane-1,7-dione] are the same in IC50: 30 nM for the first, 30 nM for the second.

First: O=C1CC2(CCN1Cc1ccccc1)CCN(c1ccc(OC(F)(F)F)cc1)C2=O (stereo not drawn) [Example 1, 8-Benzyl-2-(4-trifluoromethoxy-phenyl)-2,8-diaza-spiro[4.5]decane-1,7-dione]
Second: CCN1CCC2(CCN(c3ccc(OC(F)(F)F)cc3)C2=O)CC1=O (stereo not drawn) [Example 7, 8-Ethyl-2-(4-trifluoromethoxy-phenyl)-2,8-diaza-spiro[4.5]decane-1,7-dione]
The IC50 of the first is 3-fold lower: 270 nM for the first, 810 nM for the second. The first is the more potent here.

Going from CN1CCC2(CCN(c3ccc(OC(F)(F)F)cc3)C2=O)CC1=O (stereo not drawn) [Example 6, 8-Methyl-2-(4-trifluoromethoxy-phenyl)-2,8-diaza-spiro[4.5]decane-1,7-dione] to CCCN1CCC2(CCN(c3ccc(OC(F)(F)F)cc3)C2=O)CC1=O (stereo not drawn) [Example 2, 8-Propyl-2-(4-trifluoromethoxy-phenyl)-2,8-diaza-spiro[4.5]decane-1,7-dione], the IC50 falls from 6020 nM to 250 nM (24-fold). The second is the more potent here.

CC(C)(C)CN1CCC2(CCN(c3ccc(OC(F)(F)F)cc3)C2=O)CC1=O (stereo not drawn) [Example 9, 8-(2,2-Dimethyl-propyl)-2-(4-trifluoromethoxy-phenyl)-2,8-diaza-spiro[4.5]decane-1,7-dione] and CC(C)(C)CC(=O)N1CCC2(CCN(c3ccc(OC(F)(F)F)cc3)C2=O)CC1=O (stereo not drawn) [Example 5, 8-(3,3-Dimethyl-butyryl)-2-(4-trifluoromethoxy-phenyl)-2,8-diaza-spiro[4.5]decane-1,7-dione] are within 1.5-fold of each other in IC50: 80 nM for the first, 110 nM for the second.

Going from CC(C)(C)CC(=O)N1CCC2(CCN(c3ccc(OCC(F)(F)F)cc3)C2=O)CC1=O (stereo not drawn) [Example 12, 8-(3,3-dimethylbutanoyl)-2-(4-(2,2,2-trifluoroethoxy)phenyl)-2,8-diazaspiro[4.5]decane-1,7-dione] to CC(C)(C)CC(=O)N1CCC2(CCN(c3ccc(CC(F)(F)F)cc3)C2=O)CC1=O (stereo not drawn) [Example 11, 8-(3,3-dimethylbutanoyl)-2-(4-(2,2,2-trifluoroethyl)phenyl)-2,8-diazaspiro[4.5]decane-1,7-dione], the IC50 falls from 140 nM to 60 nM (2.3-fold). The second is the more potent here.

First: CC(C)CS(=O)(=O)N1CCC2(CCN(c3ccc(OC(F)(F)F)cc3)C2=O)CC1=O (stereo not drawn) [Example 4, 8-(2-Methyl-propane-1-sulfonyl)-2-(4-trifluoromethoxy-phenyl)-2,8-diaza-spiro[4.5]decane-1,7-dione]
Second: CCCCN1CCC2(CCN(c3ccc(OC(F)(F)F)cc3)C2=O)CC1=O (stereo not drawn) [Example 8, 8-Butyl-2-(4-trifluoromethoxy-phenyl)-2,8-diaza-spiro[4.5]decane-1,7-dione]
The IC50 of the first is 1.6-fold higher: 160 nM for the first, 100 nM for the second.
